The results in this text go back to patent publication US12723063B2, “GIPR-agonist compounds” (Eli Lilly and Company, priority 2019, dated 2026).

Experiment [1] deals with T1, human glucose-dependent insulinotropic peptide receptor (GIPR) (Homo sapiens, UniProt P48546).
T1 construct: expressed in transfected cells; host or cells: HEK293
T1 sequence (P48546 22-466): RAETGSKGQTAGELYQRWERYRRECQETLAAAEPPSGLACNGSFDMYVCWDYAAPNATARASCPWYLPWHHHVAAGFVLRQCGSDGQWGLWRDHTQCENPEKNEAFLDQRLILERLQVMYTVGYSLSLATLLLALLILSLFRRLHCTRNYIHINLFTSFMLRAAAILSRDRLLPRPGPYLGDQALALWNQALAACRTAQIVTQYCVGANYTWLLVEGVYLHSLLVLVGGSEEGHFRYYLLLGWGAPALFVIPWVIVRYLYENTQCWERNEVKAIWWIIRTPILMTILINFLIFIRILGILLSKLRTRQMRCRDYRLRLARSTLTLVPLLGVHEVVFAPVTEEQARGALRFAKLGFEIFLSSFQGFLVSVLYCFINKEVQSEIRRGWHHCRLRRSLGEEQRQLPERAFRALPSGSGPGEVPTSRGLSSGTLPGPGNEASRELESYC
Put plainly: cAMP functional assay (HTRF) in HEK293 cells in presence of 0.1% casein. The class given is cell-based. The note with it: HEK293 cells expressing human GIPR, geometric mean, read-out: hGIPR cAMP Rel EC50 nM (SEM, n). (In general: TR-FRET usually uses a lanthanide donor and a delayed reading to cut background.)

Experiment [2] has as its target T2, human GLP-1 receptor (GLP-1R) (Homo sapiens, UniProt P43220).
T2 construct: expressed in transfected cells; host or cells: HEK293
The description is as above. The class given is cell-based. As to conditions: HEK293 cells expressing human GLP-1R, geometric mean, read-out: hGLP1R cAMP Rel EC50 nM (SEM, n).

The structures appear in SMILES notation. *1 amine or outer side, *2 acyl side, *3 side chain or, on linkers, in order; H or OH if unused. Where a SMILES comes first, the peptide text is derived from it. Side-chain parts run from the residue outwards. [ ]: non-standard residue; d: D form. The star is where a group is joined. C20 diacid = O=C(O)CCCCCCCCCCCCCCCCCCC(=O)*; γGlu = O=C(O)[C@H](CCC(=O)[*:2])N[*:1]; αMeF = C[C@](N)(Cc1ccccc1)C(=O)O; 4Pal = N[C@@H](Cc1ccncc1)C(=O)O; αMeL = CC(C)C[C@](C)(N)C(=O)O; AEEA = NCCOCCOCC(=O)O; Aib = CC(C)(N)C(=O)O

T2 sequence (P43220 24-463): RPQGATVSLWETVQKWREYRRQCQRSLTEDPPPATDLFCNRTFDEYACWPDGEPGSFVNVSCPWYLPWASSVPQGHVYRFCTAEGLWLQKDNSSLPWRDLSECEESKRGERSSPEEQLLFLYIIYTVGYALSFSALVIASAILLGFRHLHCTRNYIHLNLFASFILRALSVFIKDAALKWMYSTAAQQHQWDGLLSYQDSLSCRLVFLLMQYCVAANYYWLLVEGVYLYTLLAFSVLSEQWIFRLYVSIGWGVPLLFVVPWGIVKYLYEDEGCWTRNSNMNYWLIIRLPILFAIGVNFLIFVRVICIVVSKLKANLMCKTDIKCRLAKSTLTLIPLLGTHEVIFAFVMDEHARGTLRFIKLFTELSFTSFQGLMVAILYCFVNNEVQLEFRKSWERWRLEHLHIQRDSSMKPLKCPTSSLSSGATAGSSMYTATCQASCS

By EC50 is commonly meant the midpoint of the concentration-response curve. `CC[C@H](C)[C@H](NC(=O)[C@H](CO)NC(=O)[C@H](Cc1ccc(O)cc1)NC(=O)[C@H](CC(=O)O)NC(=O)[C@H](CO)NC(=O)[C@@H](NC(=O)[C@](C)(Cc1ccccc1)NC(=O)[C@@H](NC(=O)CNC(=O)[C@H](CCC(=O)O)NC(=O)C(C)(C)NC(=O)[C@@H](N)Cc1ccc(O)cc1)[C@@H](C)O)[C@@H](C)CC)C(=O)N[C@@H](C)C(=O)N[C@@H](CC(C)C)C(=O)N[C@@H](CC(=O)O)C(=O)N[C@@H](CCCCN)C(=O)N[C@@H](CCCCNC(=O)COCCOCCNC(=O)COCCOCCNC(=O)CC[C@H](NC(=O)CCCCCCCCCCCCCCCCCCC(=O)O)C(=O)O)C(=O)N[C@@H](Cc1c[nH]cn1)C(=O)N[C@@H](CCC(N)=O)C(=O)NC(C)(C)C(=O)N[C@@H](CC(=O)O)C(=O)N[C@@H](Cc1ccccc1)C(=O)N[C@H](C(=O)N[C@@H](CCC(=O)O)C(=O)N[C@@H](Cc1ccncc1)C(=O)N[C@@H](CC(C)C)C(=O)N[C@@H](CC(C)C)C(=O)N[C@@H](CCC(=O)O)C(=O)NCC(=O)NCC(=O)N1CCC[C@H]1C(=O)N[C@@H](CO)C(=O)N[C@@H](CO)C(=O)NCC(=O)N[C@@H](C)C(=O)N1CCC[C@H]1C(=O)N1CCC[C@H]1C(=O)N1CCC[C@H]1C(=O)N[C@@H](CO)C(N)=O)C(C)C` [Example 44] (H-Y[Aib]EGT[αMeF]ISDYSIALDKK([AEEA-AEEA-γGlu-C20 diacid])HQ[Aib]DFVE[4Pal]LLEGGPSSGAPPPS-NH2): the figures for the EC50 in experiment [1] and in experiment [2] were 0.0084 nM and 1180 nM, respectively.

`CC[C@H](C)[C@H](NC(=O)[C@H](Cc1ccccc1)NC(=O)[C@@H](NC(=O)CNC(=O)[C@H](CCC(=O)O)NC(=O)C(C)(C)NC(=O)[C@@H](N)Cc1ccc(O)cc1)[C@@H](C)O)C(=O)N[C@@H](CO)C(=O)N[C@@H](CC(=O)O)C(=O)N[C@@H](Cc1ccc(O)cc1)C(=O)N[C@@H](CO)C(=O)N[C@H](C(=O)N[C@@](C)(CC(C)C)C(=O)N[C@@H](CC(C)C)C(=O)N[C@@H](CC(=O)O)C(=O)N[C@@H](CCCCN)C(=O)N[C@@H](CCCCNC(=O)COCCOCCNC(=O)COCCOCCNC(=O)CC[C@H](NC(=O)CCCCCCCCCCCCCCCCCCC(=O)O)C(=O)O)C(=O)N[C@@H](Cc1c[nH]cn1)C(=O)N[C@@H](CCC(N)=O)C(=O)NC(C)(C)C(=O)N[C@@H](CC(=O)O)C(=O)N[C@@H](Cc1ccccc1)C(=O)N[C@H](C(=O)N[C@@H](CCC(=O)O)C(=O)N[C@@H](Cc1ccncc1)C(=O)N[C@@H](CC(C)C)C(=O)N[C@@H](CC(C)C)C(=O)N[C@@H](CCC(=O)O)C(=O)N[C@H](C(=O)NCC(=O)N1CCC[C@H]1C(=O)N[C@@H](CO)C(=O)N[C@@H](CO)C(=O)NCC(=O)N[C@@H](C)C(=O)N1CCC[C@H]1C(=O)N1CCC[C@H]1C(=O)N1CCC[C@H]1C(=O)N[C@@H](CO)C(N)=O)[C@@H](C)O)C(C)C)[C@@H](C)CC` [Example 45] (H-Y[Aib]EGTFISDYSI[αMeL]LDKK([AEEA-AEEA-γGlu-C20 diacid])HQ[Aib]DFVE[4Pal]LLETGPSSGAPPPS-NH2): the EC50 is 0.049 nM in experiment [1] and greater than 5000 nM in experiment [2].

`CC[C@H](C)[C@H](NC(=O)[C@H](Cc1ccccc1)NC(=O)[C@@H](NC(=O)CNC(=O)[C@H](CCC(=O)O)NC(=O)C(C)(C)NC(=O)[C@@H](N)Cc1ccc(O)cc1)[C@@H](C)O)C(=O)N[C@@H](CO)C(=O)N[C@@H](CC(=O)O)C(=O)N[C@@H](Cc1ccc(O)cc1)C(=O)N[C@@H](CO)C(=O)N[C@H](C(=O)N[C@@](C)(CC(C)C)C(=O)N[C@@H](CC(C)C)C(=O)N[C@@H](CC(=O)O)C(=O)N[C@@H](CCCCN)C(=O)N[C@@H](CCCCNC(=O)COCCOCCNC(=O)COCCOCCNC(=O)CC[C@H](NC(=O)CCCCCCCCCCCCCCCCCCC(=O)O)C(=O)O)C(=O)N[C@@H](Cc1c[nH]cn1)C(=O)N[C@@H](CCC(N)=O)C(=O)NC(C)(C)C(=O)N[C@@H](CC(=O)O)C(=O)N[C@@H](Cc1ccccc1)C(=O)N[C@H](C(=O)N[C@@H](CCC(=O)O)C(=O)N[C@@H](Cc1ccncc1)C(=O)N[C@@H](CC(C)C)C(=O)N[C@@H](CC(C)C)C(=O)N[C@@H](CCC(=O)O)C(=O)N[C@@H](CCC(N)=O)C(=O)NCC(=O)N1CCC[C@H]1C(=O)N[C@@H](CO)C(=O)N[C@@H](CO)C(=O)NCC(=O)N[C@@H](C)C(=O)N1CCC[C@H]1C(=O)N1CCC[C@H]1C(=O)N1CCC[C@H]1C(=O)N[C@@H](CO)C(N)=O)C(C)C)[C@@H](C)CC` [Example 46] (H-Y[Aib]EGTFISDYSI[αMeL]LDKK([AEEA-AEEA-γGlu-C20 diacid])HQ[Aib]DFVE[4Pal]LLEQGPSSGAPPPS-NH2): the values for the EC50 in experiment [1] and in experiment [2] were 0.0294 nM and greater than 5000 nM, respectively.

With `CC[C@H](C)[C@H](NC(=O)[C@H](Cc1ccccc1)NC(=O)[C@@H](NC(=O)CNC(=O)[C@H](CCC(=O)O)NC(=O)C(C)(C)NC(=O)[C@@H](N)Cc1ccc(O)cc1)[C@@H](C)O)C(=O)N[C@@H](CO)C(=O)N[C@@H](CC(=O)O)C(=O)N[C@@H](Cc1ccc(O)cc1)C(=O)N[C@@H](CO)C(=O)N[C@H](C(=O)N[C@@](C)(CC(C)C)C(=O)N[C@@H](CC(C)C)C(=O)N[C@@H](CC(=O)O)C(=O)N[C@@H](CCCCN)C(=O)N[C@@H](CCCCNC(=O)COCCOCCNC(=O)COCCOCCNC(=O)CC[C@H](NC(=O)CCCCCCCCCCCCCCCCCCC(=O)O)C(=O)O)C(=O)N[C@@H](Cc1c[nH]cn1)C(=O)N[C@@H](CCC(N)=O)C(=O)NC(C)(C)C(=O)N[C@@H](CC(=O)O)C(=O)N[C@@H](Cc1ccccc1)C(=O)N[C@H](C(=O)N[C@@H](CCC(=O)O)C(=O)N[C@@H](Cc1ccncc1)C(=O)N[C@@H](CC(C)C)C(=O)N[C@@H](CC(C)C)C(=O)N[C@@H](CCC(=O)O)C(=O)NCC(=O)NCC(=O)N1CCC[C@H]1C(=O)N[C@@H](CO)C(=O)N[C@@H](CO)C(=O)NCC(=O)N[C@@H](C)C(=O)N1CCC[C@H]1C(=O)N1CCC[C@H]1C(=O)N1CCC[C@H]1C(=O)N[C@@H](CO)C(N)=O)C(C)C)[C@@H](C)CC` [Example 47] (H-Y[Aib]EGTFISDYSI[αMeL]LDKK([AEEA-AEEA-γGlu-C20 diacid])HQ[Aib]DFVE[4Pal]LLEGGPSSGAPPPS-NH2), the 50% effective concentration (EC50) in experiment [1] was 0.0234 nM; in experiment [2], greater than 5000 nM.

`CC[C@H](C)[C@H](NC(=O)[C@H](Cc1ccccc1)NC(=O)[C@@H](NC(=O)CNC(=O)[C@H](CCC(=O)O)NC(=O)C(C)(C)NC(=O)[C@@H](N)Cc1ccc(O)cc1)[C@@H](C)O)C(=O)N[C@@H](CO)C(=O)N[C@@H](CC(=O)O)C(=O)N[C@@H](Cc1ccc(O)cc1)C(=O)N[C@@H](CO)C(=O)N[C@H](C(=O)N[C@@](C)(CC(C)C)C(=O)N[C@@H](CC(C)C)C(=O)N[C@@H](CC(=O)O)C(=O)N[C@@H](CCCCN)C(=O)N[C@@H](CCCCNC(=O)COCCOCCNC(=O)COCCOCCNC(=O)CC[C@H](NC(=O)CCCCCCCCCCCCCCCCCCC(=O)O)C(=O)O)C(=O)N[C@@H](Cc1c[nH]cn1)C(=O)N[C@@H](CCC(N)=O)C(=O)NC(C)(C)C(=O)N[C@@H](CC(=O)O)C(=O)N[C@@H](Cc1ccccc1)C(=O)N[C@H](C(=O)N[C@@H](CCC(=O)O)C(=O)N[C@@H](Cc1ccncc1)C(=O)N[C@@H](CC(C)C)C(=O)N[C@@H](CC(C)C)C(=O)N[C@@H](C)C(=O)NCC(=O)NCC(=O)N1CCC[C@H]1C(=O)N[C@@H](CO)C(=O)N[C@@H](CO)C(=O)NCC(=O)N[C@@H](C)C(=O)N1CCC[C@H]1C(=O)N1CCC[C@H]1C(=O)N1CCC[C@H]1C(=O)N[C@@H](CO)C(N)=O)C(C)C)[C@@H](C)CC` [Example 48]: the EC50 in experiment [1] was 0.0166 nM; in experiment [2] it was greater than 5000 nM.

For the compound `CC[C@H](C)[C@H](NC(=O)[C@H](Cc1ccccc1)NC(=O)[C@@H](NC(=O)CNC(=O)[C@H](CCC(=O)O)NC(=O)C(C)(C)NC(=O)[C@@H](N)Cc1ccc(O)cc1)[C@@H](C)O)C(=O)N[C@@H](CO)C(=O)N[C@@H](CC(=O)O)C(=O)N[C@@H](Cc1ccc(O)cc1)C(=O)N[C@@H](CO)C(=O)N[C@H](C(=O)N[C@@](C)(CC(C)C)C(=O)N[C@@H](CC(C)C)C(=O)N[C@@H](CC(=O)O)C(=O)N[C@@H](CCCCN)C(=O)N[C@@H](CCCCNC(=O)COCCOCCNC(=O)COCCOCCNC(=O)CC[C@H](NC(=O)CCCCCCCCCCCCCCCCC(=O)O)C(=O)O)C(=O)N[C@@H](Cc1c[nH]cn1)C(=O)N[C@@H](CCC(N)=O)C(=O)NC(C)(C)C(=O)N[C@@H](CC(=O)O)C(=O)N[C@@H](Cc1ccccc1)C(=O)N[C@H](C(=O)N[C@@H](CCC(=O)O)C(=O)N[C@@H](Cc1ccncc1)C(=O)N[C@@H](CC(C)C)C(=O)N[C@@H](CC(C)C)C(=O)N[C@@H](C)C(=O)NCC(=O)NCC(=O)N1CCC[C@H]1C(=O)N[C@@H](CO)C(=O)N[C@@H](CO)C(=O)NCC(=O)N[C@@H](C)C(=O)N1CCC[C@H]1C(=O)N1CCC[C@H]1C(=O)N1CCC[C@H]1C(=O)N[C@@H](CO)C(N)=O)C(C)C)[C@@H](C)CC` [Example 49], the EC50 was 0.0156 nM in experiment [1] and greater than 5000 nM in experiment [2].
